From patent publication US10947241B2, “Phenyl phthalazine derivative, method for the preparation thereof, and pharmaceutical composition comprising the same” (Seoul National University Hospital, priority 2016, dated 2021)
Counter-ions that a name gives are not always drawn.

Target: hResistin (Homo sapiens (Human), UniProt Q9HD89)
Experiment: Evaluation of the ability to inhibit TNF-α secretion by hResistin (THP-1 cells, ELISA)
Assay type: cell-based
Settings: for inhibition at 5 µM: inhibition of TNF-α secretion by hResistin in THP-1 cells; for IC50: THP-1 human monocyte cell line, human recombinant Resistin
Method: Experimental Example: Evaluation of the Ability to Inhibit TNF-α Secretion by hResistin
Using THP-1 (human monocyte) cell line and ELISA system, the abilities to inhibit TNF-α secretion by hResistin (IC50) were evaluated for the compounds prepared in the above examples. The compounds target hResistin, and the abilities of the compounds to inhibit TNF-α secretion by human recombinant Resistin in human monocyte (THP-1) were evaluated. The abilities to inhibit TNF-α secretion were assessed by ELISA quantifying the amount of antibody with the enzyme as a marker using an antigen-antibody reaction.
Specifically, the cultured cells were spun down at 1,500 rpm for 2 minutes, the supernatant was removed and then the cells were re-suspended in 10 mL of complete RPMI-1640 medium. After counting the number of cells using Luna™ Automated Cell Counter, cells were plated into 96-well assay plates at 50 μL per well. The cells cultured for 24 hours were treated with the test substances in accordance with the concentration for 1 hour, and then the supernatant was collected and subjected to ELISA assay. In the ELISA assay, the absorbance at 450 nm (OD450 nm) was measured using Flexstation 3. The ability of each test substance to inhibit TNF-α secretion (IC50) and its inhibition at a concentration of 5 uM are shown in Table 1 below.

Chain of hResistin (Q9HD89 19-108): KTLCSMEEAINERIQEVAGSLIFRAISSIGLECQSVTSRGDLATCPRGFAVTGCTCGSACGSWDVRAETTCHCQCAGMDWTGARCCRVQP

inhibition at 5 µM [%]	IC50 [nM]	SMILES
53.6		CC(C)[C@H](N)C(=O)N1CCN(c2nnc(-c3ccc(Cl)cc3)c3ccccc23)C[C@@H]1C [Example 73, (S)-2-amino-1-((S)-4-(4-(4-chlorophenyl)phthalazin-1-yl)-2-methylpiperazin-1-yl)-3-methylbutan-1-one hydrochloride]
38.7		C[C@H]1CN(C(=O)C(C)(C)N)CCN1c1nnc(-c2ccc(Cl)cc2)c2ccccc12 [Example 74, (S)-2-amino-1-(4-(4-(4-chlorophenyl)phthalazin-1-yl)-3-methylpiperazin-1-yl)-2-methylpropan-1-one hydrochloride]
30.9		CC(C)[C@H](N)C(=O)N1CCN(c2nnc(-c3ccc(Cl)cc3)c3ccccc23)[C@@H](C)C1 [Example 75, (S)-2-amino-1-((S)-4-(4-(4-chlorophenyl)phthalazin-1-yl)-3-methylpiperazin-1-yl)-3-methylbutan-1-one hydrochloride]
28.9		N[C@@H](Cc1c[nH]cn1)C(=O)N1CCN(c2nnc(-c3ccc(Cl)cc3)c3ccccc23)CC1 [Example 76, (S)-2-amino-1-(4-(4-(4-chlorophenyl)phthalazin-1-yl)piperazin-1-yl)-3-(1H-imidazol-4-yl)propan-1-one dihydrochloride]
46.7		CC(C)(C)C(N)C(=O)N1CCN(c2nnc(-c3ccc(Cl)cc3)c3ccccc23)CC1 (stereo not drawn) [Example 77, 2-amino-1-(4-(4-(4-chlorophenyl)phthalazin-1-yl)piperazin-1-yl)-3,3-dimethylbutan-1-one hydrochloride]
81.3		O=C(C1CCCCN1)N1CCN(c2nnc(-c3ccc(Cl)cc3)c3ccccc23)CC1 (stereo not drawn) [Example 78, (4-(4-(4-chlorophenyl)phthalazin-1-yl)piperazin-1-yl)(piperidin-2-yl)methanone hydrochloride]
65.4		N[C@@H](COCc1ccccc1)C(=O)N1CCN(c2nnc(-c3ccc(Cl)cc3)c3ccccc23)CC1 [Example 79, (S)-2-amino-3-(benzyloxy)-1-(4-(4-(4-chlorophenyl)phthalazin-1-yl)piperazin-1-yl)propan-1-one hydrochloride]
69.9		N[C@H](C(=O)N1CCN(c2nnc(-c3ccc(Cl)cc3)c3ccccc23)CC1)c1ccccc1 [Example 80, (S)-2-amino-1-(4-(4-(4-chlorophenyl)phthalazin-1-yl)piperazin-1-yl)-2-phenylethanone hydrochloride]
48.1		O=C1CN[C@H](C(=O)N2CCN(c3nnc(-c4ccc(Cl)cc4)c4ccccc34)CC2)CN1 [Example 81, (S)-5-(4-(4-(4-chlorophenyl)phthalazin-1-yl)piperazine-1-carbonyl)piperazin-2-one hydrochloride]
50		CC(C)(C(=O)O)N1CCN(c2nnc(-c3ccc(Cl)cc3)c3ccccc23)CC1 [Example 82, 2-(4-(4-(4-chlorophenyl)phthalazin-1-yl)piperazin-1-yl)-2-methylpropanoic acid]
12.6		NC(=O)CCC(N)C(=O)N1CCN(c2nnc(-c3ccc(Cl)cc3)c3ccccc23)CC1 (stereo not drawn) [Example 84, 4-amino-5-(4-(4-(4-chlorophenyl)phthalazin-1-yl)piperazin-1-yl)-5-oxopentanamide hydrochloride]
45.3	5400	NC(=O)CC(N)C(=O)N1CCN(c2nnc(-c3ccc(Cl)cc3)c3ccccc23)CC1 (stereo not drawn) [Example 85, 3-amino-4-(4-(4-(4-chlorophenyl)phthalazin-1-yl)piperazin-1-yl)-4-oxobutanamide hydrochloride]
	18000	NC(CCC(=O)O)C(=O)N1CCN(c2nnc(-c3ccc(Cl)cc3)c3ccccc23)CC1 (stereo not drawn) [Example 86, 4-amino-5-(4-(4-(4-chlorophenyl)phthalazin-1-yl)piperazin-1-yl)-5-oxopentanoic acid hydrochloride]
	1700	Clc1ccc(-c2nnc(N3CCC4CCNC4C3)c3ccccc23)cc1 (stereo not drawn) [Example 87, 1-(4-chlorophenyl)-4-(tetrahydro-1H-pyrrolo[2,3-c]pyridin-6(2H,7H,7aH)-yl)phthalazine hydrochloride]
	900	Clc1ccc(-c2nnc(N3CC4CCNC4C3)c3ccccc23)cc1 (stereo not drawn) [Example 88, 1-(4-chlorophenyl)-4-(hexahydropyrrolo[3,4-b]pyrrol-5(1H)-yl)phthalazine hydrochloride]
77.9	1800	CNC1CCN(c2nnc(-c3ccc(Cl)cc3)c3ccc(Cl)cc23)C1 (stereo not drawn) [Example 89, 1-(7-chloro-4-(4-chlorophenyl)phthalazin-1-yl)-N-methylpyrrolidin-3-amine hydrochloride]
86.7	900	CNC1CCN(c2nnc(-c3ccc(Cl)cc3)c3cc(Cl)ccc23)C1 (stereo not drawn) [Example 90, 1-(6-chloro-4-(4-chlorophenyl)phthalazin-1-yl)-N-methylpyrrolidin-3-amine hydrochloride]
76.6	600	CNC1CCN(c2nnc(-c3ccc(Cl)cc3)c3cc(F)ccc23)C1 (stereo not drawn) [Example 91, 1-(4-(4-chlorophenyl)-6-fluorophthalazin-1-yl)-N-methylpyrrolidin-3-amine hydrochloride]
67.6	1900	CNC1CCN(c2nnc(Oc3ccc(Cl)cc3)c3ccccc23)C1 (stereo not drawn) [Example 93, 1-(4-(4-chlorophenoxy)phthalazin-1-yl)-N-methylpyrrolidin-3-amine hydrochloride]
29.9		CC(C)(N)C(=O)N1CCN(c2nnc(Oc3ccc(Cl)cc3)c3ccccc23)CC1 [Example 94, 2-amino-1-(4-(4-(4-chlorophenoxy)phthalazin-1-yl)piperazin-1-yl)-2-methylpropan-1-one hydrochloride]
64	2300	Clc1ccc(-c2nnc(O[C@H]3CCNC3)c3ccccc23)cc1 [Example 95, (S)-1-(4-chlorophenyl)-4-(pyrrolidin-3-yloxy)phthalazine hydrochloride]
58.9		Clc1ccc(-c2nnc(OC3CCCNC3)c3ccccc23)cc1 (stereo not drawn) [Example 96, 1-(4-chlorophenyl)-4-(piperidin-3-yloxy)phthalazine hydrochloride]
26.9		CNC1CCN(c2nnc(Nc3ccc(Cl)cc3)c3ccccc23)C1 (stereo not drawn) [Example 97, N-(4-chlorophenyl)-4-(3-(methylamino)pyrrolidin-1-yl)phthalazin-1-amine]
3.9		CNC1CCN(c2nnc(Cc3ccc(Cl)cc3)c3ccccc23)C1 (stereo not drawn) [Example 98, 1-(4-(4-chlorobenzyl)phthalazin-1-yl)-N-methylpyrrolidin-3-amine hydrochloride]
37		CC(C)(N)C(=O)N1CCN(c2nnc(-c3ccc(C(F)(F)F)cc3)c3ccccc23)CC1 [Example 102, 2-amino-2-methyl-1-(4-(4-(4-(trifluoromethyl)phenyl)phthalazin-1-yl)piperazin-1-yl)propan-1-one hydrochloride]
32		CC(C)(N)C(=O)N1CCN(c2nnc(-c3ccc(OC(F)(F)F)cc3)c3ccccc23)CC1 [Example 103, 2-amino-2-methyl-1-(4-(4-(4-(trifluoromethoxy)phenyl)phthalazin-1-yl)piperazin-1-yl)propan-1-one hydrochloride]
0.6		CC(C)(N)C(=O)N1CCN(c2nnc(-c3ccc(CCC(=O)O)cc3)c3ccccc23)CC1 [Example 104, 3-(4-(4-(4-(2-amino-2-methylpropanoyl)piperazin-1-yl)phthalazin-1-yl)phenyl)propanoic acid hydrochloride]
